These results are taken from US12714669B2, “Liposomal formulations comprising AT1 receptor blockers and uses thereof” (YISSUM RESEARCH DEVELOPMENT COMPANY OF THE HEBREW …, priority 2020, dated 2026).

In data set [1] the test system is mouse mean blood pressure (MBP). Nature of the data set: Liposomal valsartan activity on mice blood pressure (CODA monitor, tail). Format: in vivo. Here is the method:
The development of liposomal ARB's aimed at delivering the drugs to the tumor and exert their activity there while avoiding the systemic effect of the drug on blood pressure. […] MBP was measured using CODA monitor device allowing measurement of blood pressure in mouse tail.
Four mice were tested before drug administration and 2, 24 and 48 h after drug administration. For each mouse, at least 3 measurements (and up to 10) were recorded for each time point.

For data set [2], the target named is T1, AT1 receptor (Homo sapiens, UniProt P30556).
T1 sequence (P30556 1-359): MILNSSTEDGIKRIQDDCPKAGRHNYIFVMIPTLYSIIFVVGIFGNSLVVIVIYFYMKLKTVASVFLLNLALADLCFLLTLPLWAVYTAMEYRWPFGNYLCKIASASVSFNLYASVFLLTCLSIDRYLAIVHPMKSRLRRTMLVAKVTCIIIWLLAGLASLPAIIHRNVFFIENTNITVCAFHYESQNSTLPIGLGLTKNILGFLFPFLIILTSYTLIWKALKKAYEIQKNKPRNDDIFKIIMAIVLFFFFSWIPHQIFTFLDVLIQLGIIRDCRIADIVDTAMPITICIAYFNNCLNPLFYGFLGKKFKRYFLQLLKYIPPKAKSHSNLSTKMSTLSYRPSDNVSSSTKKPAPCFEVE
The note with it: cited from earlier work.

The conditions of data set [3]: aqueous media; compared with valsartan; cited from earlier work.
The target of data set [4] is T1, AT1 receptor. Nature of the data set: IC50 / affinity to AT1 receptor (stated, not measured in the patent). The data set is classed as binding. The note with it: corresponding to the nM values; read-out: IC50 to AT1 receptor, as mass concentration (converted).

“Also recorded” adds a separate entry of the source. Like-named read-outs stand apart in the source and are kept apart here.

As to `CCCCC(=O)N(Cc1ccc(-c2ccccc2-c2nnn[nH]2)cc1)[C@H](C(=O)O)C(C)C` [Valsartan, (2S)-3-methyl-2-[pentanoyl-[[4-[2-(2H-tetrazol-5-yl)phenyl]phenyl]methyl]amino]butanoic acid], the “lowering of MBP” value in data set [1] (25 mg/kg, 2 h after administration) is ~ 35 units. In data set [1] (25 mg/kg, 24 h after administration), the “MBP at t=24 h” value was “returned to baseline”. Moreover, the “effect on MBP 2 h after injection” value in data set [1] (2 h after injection) was “reduction in MBP”. The compound further yielded an MBP after administration in data set [1] (reduction from 105 mmHg) of 70 mmHg.

Take `CCOc1nc2cccc(C(=O)O)c2n1Cc1ccc(-c2ccccc2-c2nnn[nH]2)cc1` [Candesartan, 2-ethoxy-3-[[4-[2-(2H-tetrazol-5-yl)phenyl]phenyl]methyl]benzimidazole-4-carboxylic acid]: the IC50 on AT1 receptor [2] was 3 nM; at AT1 receptor [4], 2.95 nM. Moreover, the “affinity for AT1 receptor” value on AT1 receptor [2] (versus losartan, telmisartan, valsartan (Bhuiyan 2013)) is reported as “highest affinity”. For the same compound, the solubility result in data set [3] is reported as “very limited; also recorded: not soluble”.
